{"source": "patent EP0176033A2", "about": "“Isoxazolecarboxylic-acid derivatives, their preparation and use” (BASF Aktiengesellschaft, priority 1984, dated 1986)", "tested_on": "Rhino-Maus", "assay": "Rhino mouse model: reduction of utriculus diameter after topical application (comedolytic activity)", "type": "in vivo", "settings": "100 µl on the back, once daily, 5 days per week, 2 weeks, versus untreated control group", "source_text": "Die antiarthritische Wirkung der erfindungsgemäßen Verbindungen kann in üblicher Weise im Tierexperiment im Adjuvans-Arthritis-Modell bestimmt werden. Die dermatologische Aktivität, beispielsweise für die Behandlung von Akne, kann u. a. durch die komedolytische Aktivität und die Fähigkeit nachgewiesen werden, die Anzahl der Zysten im Modell der Rhino--Maus zu reduzieren.\nDiese Methode ist von L. H. Kligman et al in The Journal of Investigative Dermatology 73, 354 - 358 (1979) und von J.A. Mezick et al. in \"Models of Dermatalogy\" (Ed. Maibach, Läwe), Vol. 2, S. 59-63, Karger, Basel 1985) beschrieben.\nDie Testsubstanz wurde in einem geeigneten Vehikel auf der gesamten Rückenpartie der Rhino-Maus topisch aufgetragen (100 µl), einmal täglich, an fünf aufeinanderfolgenden Tagen pro Woche, zwei Wochen lang ungefähr 72 h nach der letzten Behandlung wurde die dorsale Haut entfernt und in 0,5 Xiger Essigsäure 18 h bei 4-6°C belassen. Danach wurde eine ca. 2 x 5 cm^2 große Fläche herausgeschnitten, die Epidermis abgeschält, auf einen Objektträger aufgebracht (mit der dermalen Seite nach oben) und mittels Alkohol/Xylol wasserfrei gespült, bis die Epidermis durchsichtig erscheint. Die Probe wurde durch Uberziehen mit Permount fixiert und mikroskopisch ausgewertet. […]", "data": [{"compound": "C/C(=C\\c1cc(C(=O)O)no1)c1ccc2c(c1)C(C)(C)CCC2(C)C", "note": "[Beispiel 17a, (E)-5-[2-(5,5,8,8-Tetramethyl-5,6,7,8-tetrahydro-naphth--2-yl)-1-propenyl]isoxazol-3-carbonsäure]", "values": [{"measurement": "Reduktion des Utriculusdurchmessers in %", "setting": "Dosis 0,2 mg/ml", "result": "45,1%"}, {"measurement": "Reduktion des Utriculusdurchmessers in %", "setting": "Dosis 2 mg/ml", "result": "75,6%"}]}]}
